From US20030082101A1, “Accelerators for increasing the rate of formation of free radicals and reactive oxygen species” (Cavalier Discovery, priority 2001, published 2003)
Structures can show the parent of a compound that is named as a salt.

Legend:
Assay type in all cases: biochemical
deoxyribose [1] = assay: TBARS assay, chelants 0.07-0.11 mM during ultrasound exposure, ferrous iron (Example 3); settings: 0.025 mM ferrous iron, 0.07-0.11 mM chelant, 0.01% hydrogen peroxide, pH 7.5, 30 W 2 MHz 10 min
Description: (§1) The following example uses the thiobarbituric acid-reactive substances (TBARS) assay to identify chelants that enhance radical production during ultrasound exposure. All solutions were prepared in pH 7.5 phosphate buffer containing approximately 2 mM deoxyribose, 0.01% hydrogen peroxide, 0.025 mM ferrous iron, and 0.07-0.11 mM chelant. Solutions were sonicated at 30 W, 2 MHz, 32-34 degrees Celsius for ten minutes using a PZT-8 1.8 cm diameter custom transducer. The sonicated solution was placed on an orbit shaker rotating at 25 RPM to ensure even sonication of the solution while the transducer was held stationary. Control solutions were placed in a controlled temperature bath at 32-34 degrees Celsius without sonication. After 10 minutes of treatment, 1 mL test solution was placed in a test tube followed by 2 mL of 1% 2-thiobarbituric acid and 2 mL of 2.8% trichloroacetic acid. The test tube was sealed and heated to 90 degrees Celsius for 30 minutes and allowed to cool to room temperature for 20 minutes. The absorbance at 532 nm was measured. The enhanced radical production during ultrasound exposure was determined by comparing the amount of deoxyribose degradation that occurs in the sonicated solution versus the control solution using the following equation: [formula]

deoxyribose [2] = assay: TBARS assay, chelants 0.07-0.11 mM during ultrasound exposure, ferric iron (Example 4); settings: 0.02-0.03 mM ferric iron, 0.07-0.11 mM chelant, 0.01% hydrogen peroxide, pH 7.5, 30 W 2 MHz 10 min
Description: as §1, with “0.02-0.03” for “0.025”, “ferric” for “ferrous”

deoxyribose [3] = assay: TBARS assay, anti tumor antibiotics, ultrasound (Example 12); settings: 0.005 mM ferrous iron, 0.005 mM ferric iron, 15 min
Description: The following example uses the thiobarbituric acid-reactive substances (TBARS) assay to identify anti tumor antibiotics that enhance radical production during ultrasound. All solutions are prepared in pH 7.5 phosphate buffer containing approximately 2 mM deoxyribose, 0.01% hydrogen peroxide, 0.005 mM ferrous iron, 0.005 mM ferric iron, and the additives indicated in the table below. Solutions are sonicated at 30 W, 2 MHz, 32-34 degrees Celsius for fifteen minutes using a PZT-8 1.8 cm diameter custom transducer. The sonicated solution is placed on an orbit shaker rotating at 25 RPM to ensure even sonication of the solution while the transducer is held stationary. Control solutions are placed in a controlled temperature bath at 32-34 degrees Celsius without sonication. After 15 minutes of treatment, 1 mL test solution was placed in a test tube followed by 2 mL of 1% 2-thiobarbituric acid and 2 mL of 2.8% trichloroacetic acid. The test tube is sealed and heated to 90 degrees Celsius for 30 minutes and allowed to cool to room temperature for 20 minutes. The absorbance at 532 nm is measured. The enhanced radical production during ultrasound exposure is determined by comparing the amount of deoxyribose degradation that occurs in the sonicated solution versus the control solution using the following equation: [formula]

deoxyribose [4] = assay: TBARS assay, chelants during ultrasound exposure, ferrous iron (Example 1); settings: 0.025 mM ferrous iron, 0.03-0.04 mM chelant, 0.01% hydrogen peroxide, pH 7.5, 30 W 2 MHz 10 min
Description: as §1, with “and 0.03-0.04” for “and 0.07-0.11”, “exposure is” for “exposure was”

deoxyribose [5] = assay: TBARS assay, chelants during ultrasound exposure, ferric iron (Example 2); settings: 0.02-0.03 mM ferric iron, 0.04-0.05 mM chelant, 0.01% hydrogen peroxide, pH 7.5, 30 W 2 MHz 10 min
Description: as §1, with “0.02-0.03” for “0.025”, “ferric” for “ferrous”, “0.04-0.05” for “0.07-0.11”

[6] = Free radical production when exposed to ultrasound and a metal (statements in the description); settings: for free radical production: when exposed to ultrasound and a metal
ferritin = assay: Release of iron from ferritin assay, naphthoquinones, ultrasound (Example 8); settings: iron release vs ultrasound without additive, 0.2 mg/mL ferritin, pH 7, 15 min
Description: The following example uses the release of iron from ferritin assay to show the effect of naphthoquinones on the release of iron from ferritin during ultrasound exposure. All solutions were prepared in pH 7 acetic acid solution containing approximately 0.2 mg/mL ferritin and 1 mM ferrozine, and the concentration of naphthoquinone indicated in the table below. Solutions were sonicated at 30 W, 2 MHz, 32-34 degrees Celsius for fifteen minutes using a PZT-8 1.8 cm diameter custom transducer. The sonicated solution was placed on an orbit shaker rotating at 25 RPM to ensure even sonication of the solution while the transducer was held stationary. Control solutions were placed in a controlled temperature bath at 32-34 degrees Celsius without sonication. After 15 minutes of treatment, an aliquot was tested for the presence of the iron-ferrozine chelate via absorbance at 562 nm. The amount of iron released was determined using the control solution corrected absorbance (subtract the absorbance of the control solution from the absorbance of the ultrasound solution). The corrected absorbance was compared to a ferrozine-iron standard curve to determine the amount of iron released. The enhanced iron release due to ultrasound exposure in the presence of the naphthoquinone was compared to the amount of enhanced iron release due to ultrasound exposure in the absence of any additives as follows: [formula]

Molecule: O=S(=O)(O)c1ccc(-c2nnc(-c3ccccn3)nc2-c2ccc(S(=O)(=O)O)cc2)cc1 [3-(2-Pyridyl)-5,6-diphenyl-1,2,4-triazine-4,4-disulfonic acid]
- % Ultrasound Mediated Activity vs Control (deoxyribose [1]): 45%
- % Ultrasound Mediated Activity vs Control (deoxyribose [2]): 136%

Molecule: COC1C(O)CC(OC2CC(Oc3cc4cc5c(c(O)c4c(O)c3C)C(=O)[C@@H](OC3CC(OC4CC(OC6CC(C)(O)C(OC(C)=O)C(C)O6)C(O)C(C)O4)C(O)C(C)O3)[C@H]([C@H](OC)C(=O)[C@@H](O)[C@@H](C)O)C5)OC(C)C2OC(C)=O)OC1C (some centres unmarked) [Chromomycin]
- % Ultrasound Mediated Activity vs Control (deoxyribose [3]; 0.025 mM additive): >100%

Molecule: COc1cccc2c1C(=O)c1c(O)c3c(c(O)c1C2=O)C[C@@](O)(C(=O)CO)C[C@@H]3O[C@H]1C[C@H](N)[C@@H](O)[C@H](C)O1 [Epirubicin]
- % Ultrasound Mediated Activity vs Control (deoxyribose [3]; 0.1 mM additive): >100%

Molecule: O=C(O)CN(CCO)CCN(CC(=O)O)CC(=O)O [N-(2-Hydroxyethyl)ethylenediamine-N,N′,N′-triacetic acid]
- % Ultrasound Mediated Activity vs Control (deoxyribose [4]): 34%
- % Ultrasound Mediated Activity vs Control (deoxyribose [5]): 224%

Molecule: O=C(O)CC(O)(CC(=O)O)C(=O)O [Citrate]
- % Ultrasound Mediated Activity vs Control (deoxyribose [1]): 31%
- free radical production [6]: increase free radical production
- % Ultrasound Mediated Activity vs Control (deoxyribose [2]): 161%

Molecule: CC(=O)N(O)CCCCCNC(=O)CCC(=O)N(O)CCCCCNC(=O)CCC(=O)N(O)CCCCCN [Desferrioxamine mesylate]
- % Ultrasound Mediated Activity vs Control (deoxyribose [4]): 92%
- % Ultrasound Mediated Activity vs Control (deoxyribose [5]): 81%

Molecule: O=C(O)c1ccccn1 [Picolinic Acid]
- % Ultrasound Mediated Activity vs Control (deoxyribose [1]): 53%
- % Ultrasound Mediated Activity vs Control (deoxyribose [2]): 175%

Molecule: CC(C)=CCC1=C(O)C(=O)c2ccccc2C1=O [2-hydroxy-3-(3-methyl-2-butenyl)-1,4-naphthoquinone]
- % Ultrasound Mediated Activity (ferritin; 15 uM additive): 72%

Molecule: O=C(O)CN(CC(=O)O)CC(=O)O [Nitriloacetic acid]
- % Ultrasound Mediated Activity vs Control (deoxyribose [4]): 69%
- % Ultrasound Mediated Activity vs Control (deoxyribose [5]): 238%

Molecule: Olivomycin
- % Ultrasound Mediated Activity vs Control (deoxyribose [3]; 0.025 mM additive): >100%

Molecule: O=C(O)CN(CC(=O)O)C1CCCCC1N(CC(=O)O)CC(=O)O (centres unmarked) [Diaminocyclohexane-N,N,N′,N′-tetraacetic acid]
- % Ultrasound Mediated Activity vs Control (deoxyribose [4]): 61%
- % Ultrasound Mediated Activity vs Control (deoxyribose [5]): 446%

Molecule: CC1=CC(=O)c2c(O)cccc2C1=O [5-hydroxy-2-methyl-1,4-naphthoquinone]
- % Ultrasound Mediated Activity (ferritin; 71 uM additive): 155%

Molecule: O=S([O-])[O-].[Na+].[Na+] [sodium sulfite]
- free radical production [6]: increase free radical production

Molecule: Cc1c(C(=O)O)c(O)cc2c1C(=O)c1c(O)c([C@@H]3O[C@H](CO)[C@@H](O)[C@H](O)[C@H]3O)c(O)c(O)c1C2=O [Carminic acid]
- % Ultrasound Mediated Activity vs Control (deoxyribose [3]; 0.025 mM additive): >100%

Molecule: O=C(O)CN(CCN(CC(=O)O)CC(=O)O)CCN(CC(=O)O)CC(=O)O [Diethylenetriaminepentaacetic acid]
- % Ultrasound Mediated Activity vs Control (deoxyribose [5]): 177%

Molecule: O=C(O)CN(CCOCCOCCN(CC(=O)O)CC(=O)O)CC(=O)O [Ethylene glycol-bis(2-aminoethyl)-N,N,N′,N′-tetraacetic acid]
- % Ultrasound Mediated Activity vs Control (deoxyribose [4]): 29%
- % Ultrasound Mediated Activity vs Control (deoxyribose [5]): 520%

Molecule: c1cnc2c(c1)ccc1cccnc12 [1,10 Phenanthroline]
- % Ultrasound Mediated Activity vs Control (deoxyribose [1]): 33%

Molecule: O=C(O)P(=O)(O)O [phosphonoformic acid]
- radical production ([6]; added to an iron/EDTA system, ultrasound): radical production was increased

Molecule: COc1cccc2c1C(=O)c1c(O)c3c(c(O)c1C2=O)C[C@@](O)(C(C)=O)C[C@@H]3O[C@H]1C[C@H](N)[C@H](O)[C@H](C)O1 [Daunomycin]
- % Ultrasound Mediated Activity vs Control (deoxyribose [3]; 0.1 mM additive): >100%

Molecule: CO[C@@]12[C@H](COC(N)=O)C3=C(C(=O)C(C)=C(N)C3=O)N1C[C@@H]1N[C@@H]12 [Mitomycin C]
- % Ultrasound Mediated Activity vs Control (deoxyribose [3]; 0.025 mM additive): >100%

Molecule: COC1=C(N)C(=O)c2nc(-c3nc(C(=O)O)c(C)c(-c4ccc(OC)c(OC)c4O)c3N)ccc2C1=O [Streptonigrin]
- % Ultrasound Mediated Activity vs Control (deoxyribose [3]; 0.025 mM additive): >100%

Molecule: O=S(=O)(O)c1ccc(-c2nnc(-c3ccccn3)nc2-c2ccc(S(=O)(=O)O)o2)o1 [3-(2-Pyridyl)-5,6-bis(5-sulfo-2-furyl)-1,2,4-triazine]
- % Ultrasound Mediated Activity vs Control (deoxyribose [1]): 50%
- % Ultrasound Mediated Activity vs Control (deoxyribose [2]): 207%

Molecule: Nc1ncnc2c1ncn2[C@@H]1O[C@H](COP(=O)(O)OP(=O)(O)O)[C@@H](O)[C@H]1O [Adenosine diphosphate (ADP), Adenosine diphosphate]
- % Ultrasound Mediated Activity vs Control (deoxyribose [1]): 26%
- free radical production [6]: increase free radical production
- % Ultrasound Mediated Activity vs Control (deoxyribose [2]): 280%
